Some test systems named below: OVCAR-4 ovarian; SNB-19 CNS; BT-549 breast; OVCAR-3 ovarian; RPMI-8226 leukemia; HOP-92 NSCLC; SF-268 CNS; OVCAR-8 ovarian; TK-10 renal; LOX IMVI melanoma.
What all share (test): NCI anticancer screen, dose series, 48 h

“And” between values parts separate entries of the source, which are not always exact repeats. Identical values can stand only once.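 Cultured in 96-well plates, cells were exposed to test compound for 48 hours across five concentrations. GI50 is the concentration that inhibits growth by half. TGI denotes the concentration required for complete inhibition of growth.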

Consider `O=C1CC(c2ccccc2)C2(C(=O)NC(=S)NC2=O)C(c2ccccc2)C1` (configuration not stated), for which the TGI in the assay with OVCAR-4 ovarian was more than 75 µM; in the assay with SNB-19 CNS it was more than 75 µM; in the assay on BT-549 breast, more than 75 µM; with OVCAR-3 ovarian, more than 75 µM; in the assay on RPMI-8226 leukemia, 73.3 µM; in the assay on HOP-92 NSCLC, more than 75 µM. The TGI in the assay with SF-268 CNS, in the assay on OVCAR-8 ovarian, in the assay on TK-10 renal and in the assay on LOX IMVI melanoma was more than 75 µM each time.

For `COc1ccc(C2OC(=O)c3ccc4ccccc4c32)c(C)c1` (configuration not stated), the TGI in the assay on OVCAR-4 ovarian was more than 100 µM; with SNB-19 CNS, more than 100 µM; in the assay on BT-549 breast, more than 100 µM; with OVCAR-3 ovarian, 53.1 µM; in the assay with RPMI-8226 leukemia, more than 65.4 µM; in the assay on HOP-92 NSCLC it was more than 89.8 µM. For the same compound, the TGI in the assay with SF-268 CNS was more than 100 µM; in the assay on OVCAR-8 ovarian, 56.5 µM; in the assay with TK-10 renal it was more than 95.3 µM; in the assay with LOX IMVI melanoma, more than 100 µM.

For the compound `C=C(C(=O)O)[C@@H]1C[C@@H]2O[C@H]1[C@@H](O)[C@@H](C)CCCC(C)=CCC[C@@]2(C)O`, the TGI in the assay with OVCAR-4 ovarian, in the assay on SNB-19 CNS, in the assay on BT-549 breast, in the assay with OVCAR-3 ovarian, in the assay on RPMI-8226 leukemia and in the assay on HOP-92 NSCLC was more than 100 µM each time. Also, the TGI in the assay with SF-268 CNS, in the assay on OVCAR-8 ovarian, with TK-10 renal and with LOX IMVI melanoma was more than 100 µM in each case. Moreover, the GI50 is 33.5 µM and > 100 µM in the assay with BT-549 breast; 25 µM and 55.9 µM with RPMI-8226 leukemia.

With `COc1cc2c(cc1OC)C(=O)N(c1ccc(O)cc1)C2=O`, the TGI with OVCAR-4 ovarian, in the assay on SNB-19 CNS, with BT-549 breast, in the assay on OVCAR-3 ovarian, in the assay with RPMI-8226 leukemia and in the assay on HOP-92 NSCLC was more than 100 µM in each case. Also, the TGI in the assay on SF-268 CNS, in the assay with OVCAR-8 ovarian, in the assay on TK-10 renal and in the assay with LOX IMVI melanoma was more than 100 µM each time.

Consider `CCOC(=O)C1=C(O)C2C3CC4C2C(O)=C(C(=O)OCC)C2C1C3C42` (configuration not stated), for which the TGI in the assay with OVCAR-4 ovarian, with SNB-19 CNS, with BT-549 breast, in the assay on OVCAR-3 ovarian, with RPMI-8226 leukemia and with HOP-92 NSCLC was more than 100 µM each time. Also, the TGI in the assay with SF-268 CNS, with OVCAR-8 ovarian, in the assay with TK-10 renal and in the assay on LOX IMVI melanoma was more than 100 µM in each case.

For `NC(N)=NC(N)=Nc1ccc(S(=O)(=O)O)cc1`, the TGI with OVCAR-4 ovarian, in the assay on SNB-19 CNS, in the assay on BT-549 breast, in the assay with OVCAR-3 ovarian, in the assay with RPMI-8226 leukemia and in the assay with HOP-92 NSCLC was more than 100 µM throughout. The TGI in the assay with SF-268 CNS, in the assay on OVCAR-8 ovarian, with TK-10 renal and in the assay on LOX IMVI melanoma was more than 100 µM each time.

As to `NC(=O)N/N=C(/CC1C(=O)Oc2ccccc21)c1ccccc1O` (configuration not stated), the TGI with OVCAR-4 ovarian is more than 100 µM; with SNB-19 CNS, more than 100 µM; with BT-549 breast it was more than 100 µM; with OVCAR-3 ovarian, more than 100 µM; in the assay on RPMI-8226 leukemia, 34.9 µM; in the assay with HOP-92 NSCLC it was more than 100 µM. Also, the TGI in the assay with SF-268 CNS is more than 100 µM; with OVCAR-8 ovarian, more than 100 µM; with TK-10 renal it was more than 100 µM; in the assay with LOX IMVI melanoma, 41.5 µM.

With `O=C1/C(=C\c2cccc(Oc3ccccc3)c2)SC(c2ccccc2)N1c1ccccc1` (configuration not stated), the TGI in the assay with OVCAR-4 ovarian was more than 100 µM; in the assay with SNB-19 CNS, more than 100 µM; with BT-549 breast, more than 100 µM; in the assay on OVCAR-3 ovarian, more than 100 µM; in the assay with RPMI-8226 leukemia it was 50.3 µM; in the assay on HOP-92 NSCLC it was more than 100 µM. The TGI in the assay on SF-268 CNS, in the assay on OVCAR-8 ovarian, in the assay on TK-10 renal and with LOX IMVI melanoma was more than 100 µM throughout.

For the compound `CCN1CCC(O)(c2ccc(Oc3ccc(F)cc3)cc2)C(C(=O)c2ccc(Oc3ccc(F)cc3)cc2)C1` (configuration not stated), the TGI in the assay on OVCAR-4 ovarian worked out at 29 µM; in the assay on SNB-19 CNS it was 29.6 µM; in the assay with BT-549 breast it was 29.1 µM; in the assay on OVCAR-3 ovarian, 28.6 µM; in the assay on RPMI-8226 leukemia, 8.03 µM; in the assay on HOP-92 NSCLC it was 24.4 µM. The TGI in the assay on SF-268 CNS turned out to be 34.9 µM; in the assay on OVCAR-8 ovarian, 30.7 µM; with TK-10 renal, 23.5 µM; with LOX IMVI melanoma, 25.9 µM.

Turning to `Nc1nc(Cl)c(N)c(NCC2(CO)CC2)n1`, the TGI in the assay on OVCAR-4 ovarian, in the assay on SNB-19 CNS, with BT-549 breast, in the assay with OVCAR-3 ovarian, with RPMI-8226 leukemia and in the assay on HOP-92 NSCLC was more than 100 µM each time. For the same compound, the TGI with SF-268 CNS, in the assay on OVCAR-8 ovarian, in the assay with TK-10 renal and in the assay with LOX IMVI melanoma was more than 100 µM throughout.

As for `CCN(CC)CCCNc1ccc2nc(C)n3c4ccc(O)cc4c(=O)c1c23`, the TGI in the assay with OVCAR-4 ovarian was determined as 20.1 µM; in the assay with SNB-19 CNS it was 22 µM; with BT-549 breast it was 25.6 µM; in the assay with OVCAR-3 ovarian, 21.6 µM; with RPMI-8226 leukemia, 10.8 µM; in the assay on HOP-92 NSCLC, 11.4 µM. In addition, the TGI in the assay with SF-268 CNS stood at 17.2 µM; with OVCAR-8 ovarian it was 19.6 µM; with TK-10 renal it was 16.4 µM; in the assay with LOX IMVI melanoma it was 3.71 µM.

`O=C(/C=C/c1cccc(Oc2ccccc2)c1)NCc1ccc(C(=O)NCc2ccccc2)cc1`: the TGI in the assay on OVCAR-4 ovarian, in the assay with SNB-19 CNS, in the assay on BT-549 breast, in the assay with OVCAR-3 ovarian, in the assay on RPMI-8226 leukemia and in the assay with HOP-92 NSCLC was more than 100 µM in each case. Further, the TGI in the assay with SF-268 CNS, with OVCAR-8 ovarian, in the assay with TK-10 renal and in the assay on LOX IMVI melanoma was more than 100 µM each time.

For the compound `CC1=NC2=Nc3nc(C)cc[n+]3CN2C=C1`, the TGI was more than 100 µM in the assay on OVCAR-4 ovarian; more than 100 µM in the assay with SNB-19 CNS; more than 100 µM in the assay on BT-549 breast; more than 100 µM with OVCAR-3 ovarian; 67.5 µM with RPMI-8226 leukemia; more than 100 µM with HOP-92 NSCLC. Moreover, the TGI in the assay on SF-268 CNS, in the assay on OVCAR-8 ovarian, with TK-10 renal and in the assay with LOX IMVI melanoma was more than 100 µM throughout.

(Values after PubChem BioAssay (NCI).)
